From PubChem BioAssay AID1963432 (Molecular Pharmacology Branch, DTP, NCI, 2024)

System: SYO-1 complex spheroid growth, percent test/control
Assay: Anticancer human tumor SYO-1 cell line growth inhibition [Asc];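 further: compound exposure lasted 7 days after spheroids grew 3 days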;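 on viability, T/C: 100% = DMSO vehicle control viability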
Details: for IC50: curve of first compound; for viability, T/C: stronger effect = lower value
Procedure: Multicellular complex tumor spheroid response to apoptosis pathway targeting inhibitors Alrizomadlin, Pelcitoclax, and Dasminapant in combination with a variety of drugs and investigational agents in selected tumor cell lines
The MDM2 inhibitor alrizomadlin, the Bcl-2/Bcl-xL inhibitor pelcitoclax, and the IAPs inhibitor dasminapant were evaluated both individually and in combination with standard of care and investigational anticancer small molecules within a complex spheroid model of solid tumors. . Complex spheroids include a stromal component modeled by human endothelial cells (HUVEC) and fibroblasts modeled by human mesenchymal stem cells (MSCs). The concentration ranges selected for each drug and investigational agent were based upon clinically achievable concentrations if the clinical Cmax of the agent was known.
Compounds. The drugs and investigational agents: alrizomadlin (APG-115; NSC831270), pelcitoclax (APG-1252; NSC835773), dasminapant (APG-1387;NSC834197), TAK-243 (NSC785004), copanlisib (NSC809693), olaparib (NSC753686), talazoparib (NSC767125), cobimetinib (NSC 768068), eltanexor (KPT-8602, NSC 794443), abemaciclib (NSC 768073), sotorasib (NSC818433), adagrasib (NSC 831453), MRTX-1133 (NSC 836407), Iadademestat (ORY1001, NSC 806812), and RMC-4630 (NSC839698), were obtained from the NCI Developmental Therapeutics Program Chemical Repository. The FDA-approved anticancer drug set is available from the Developmental Therapeutics Program at https://dtp.cancer.gov/organization/dscb/obtaining/available plates.htm. […] The stock solutions were prepared in dimethyl sulfoxide (DMSO, Sigma-Aldrich, St. Louis, MO, cat. D2650) at 800-fold the tested concentration and stored at -70 degrees C prior to their use. All drugs and investigational agents were tested over a range starting from a high concentration at or near the clinical Cmax and decreasing in half-log increments. If the clinical Cmax for an agent had not been determined, the highest concentration tested was 10 microM.
The patient-derived cancer (PDC) cell lines include five colon adenocarcinomas: 186277-243-T-J2-PDC, 616215-338-R-J1-PDC, 439559-082-T-J2-PDC, 463943-066-T-J2-PDC, and 519858-162-T-J1-PDC; three pancreatic carcinomas: 323965-272-R-J2-PDC, 521955-158-R6-J3-PDC, and 521955-158-R2-J5-PDC; two uterine sarcomas: 327498-152-R-J2-PDC and 993429-296-R-J1-PDC; two rhabdomyosarcomas: 755483-174-R-J1-PDC and 772245-204-R-J1-PDC; two soft tissue sarcomas: 126254-015-R-J1-PDC and 494315-158-R-J1-PDC; two malignant fibrous histiocytomas: 317291-083-R-J1-PDC and 596521-263-R-J1-PDC; two breast carcinomas: 171881-019-R-J1-PDC and 885512-296-R-J2-PDC; and one ovarian carcinoma: 6556581-035-R-J-PDC were obtained from the NCI PDMR, (https://pdmr.cancer.gov). The established cell lines HSSY-2 synovial sarcoma (RRID:CVCL 8719), SYO-1 synovial sarcoma (RRID:CVCL_7146), MPNST malignant peripheral neural sheath tumor were obtained from the Sloan Kettering Institute. The following established cell lines were purchased from the American Type Culture Collection (ATCC, Manassas, VA), Sor the received from the NCI repository:, PANC-1 pancreatic carcinoma (CRL-1469, RRID:CVCL_0480), OVCAR-5 ovarian carcinoma (RRID:CVCL_1628), OVCAR-8 ovarian carcinoma (RRID:CVCL_1629), , MCF-7 breast carcinoma (CRL-12584, RRID:CVCL_0031), MDA-MB-231 breast carcinoma (CRL-12532, RRID:CVCL_0062), NCI-H1876 small cell lung carcinoma (CRL-5902, RRID:CVCL_1503), NCI-H510A small cell lung carcinoma (HTB-184, RRID:CVCL_1565), NCI-H1417 (CRL-5869, RRID:CVCL_1469), and NCI-H196 small cell lung carcinoma (CRL-5823, RRID:CVCL_1509). Dr. Peter Houghton (Greehey Children's Cancer Research Institute, University of Texas Health Science Center, San Antonio, TX) provided Rh-18 rhabdomyosarcoma (RRID:CVCL_1659). Pooled donor human umbilical vein endothelial cells (HUVEC, Lonza, cat. CC-2519) and human mesenchymal stem cells (hMSC, Lonza, cat. PT-2501) were purchased from Lonza (Walkersville, MD).
Cell Culture. […]

[1] = second compound 0.00949 µM, first compound 0.00316 µM
[2] = second compound 0.00949 µM, first compound 0.01 µM
[3] = second compound 0.00949 µM, first compound 0.0316 µM
[4] = second compound 0.00949 µM, first compound 0.1 µM
[5] = second compound 0.00949 µM, first compound 0.316 µM
[6] = second compound 0.00949 µM, first compound 1 µM
[7] = second compound 0.03 µM, first compound 0.00316 µM
[8] = second compound 0.03 µM, first compound 0.01 µM
[9] = second compound 0.03 µM, first compound 0.0316 µM
[10] = second compound 0.03 µM, first compound 0.1 µM
[11] = second compound 0.03 µM, first compound 0.316 µM
[12] = second compound 0.03 µM, first compound 1 µM
[13] = second compound 0.0949 µM, first compound 0.00316 µM
[14] = second compound 0.0949 µM, first compound 0.01 µM
[15] = second compound 0.0949 µM, first compound 0.0316 µM
[16] = second compound 0.0949 µM, first compound 0.1 µM
[17] = second compound 0.0949 µM, first compound 0.316 µM
[18] = second compound 0.0949 µM, first compound 1 µM
[19] = second compound 0.3 µM, first compound 0.00316 µM
[20] = second compound 0.3 µM, first compound 0.01 µM
[21] = second compound 0.3 µM, first compound 0.0316 µM
[22] = second compound 0.3 µM, first compound 0.1 µM
[23] = second compound 0.3 µM, first compound 0.316 µM
[24] = second compound 0.3 µM, first compound 1 µM
[25] = second compound 0.949 µM, first compound 0.00316 µM
[26] = second compound 0.949 µM, first compound 0.01 µM
[27] = second compound 0.949 µM, first compound 0.0316 µM
[28] = second compound 0.949 µM, first compound 0.1 µM
[29] = second compound 0.949 µM, first compound 0.316 µM
[30] = second compound 0.949 µM, first compound 1 µM
[31] = second compound 3 µM, first compound 0.00316 µM
[32] = second compound 3 µM, first compound 0.01 µM
[33] = second compound 3 µM, first compound 0.0316 µM
[34] = second compound 3 µM, first compound 0.1 µM
[35] = second compound 3 µM, first compound 0.316 µM
[36] = second compound 3 µM, first compound 1 µM

CCN1CCN(Cc2ccc(Nc3ncc(F)c(-c4cc(F)c5nc(C)n(C(C)C)c5c4)n3)nc2)CC1 + CCN1C(C(=O)NC23CCC(C(=O)O)(CC2)CC3)C(c2cccc(Cl)c2F)C2(C(=O)Nc3cc(Cl)ccc32)C12CCCCC2
IC50 (second compound 0.00949 µM): > 1000 nM | IC50 (second compound 0.03 µM): > 1000 nM | IC50 (second compound 0.0949 µM): 446 nM | IC50 (second compound 0.3 µM): < 3.16 nM | IC50 (second compound 0.949 µM): < 3.16 nM | IC50 (second compound 3 µM): < 3.16 nM | viability, T/C [1]: 105% | viability, T/C [2]: 105% | viability, T/C [3]: 116% | viability, T/C [4]: 119% | viability, T/C [5]: 121% | viability, T/C [6]: 102% | viability, T/C [7]: 98.8% | viability, T/C [8]: 101% | viability, T/C [9]: 98.9% | viability, T/C [10]: 117% | viability, T/C [11]: 106% | viability, T/C [12]: 73.1% | viability, T/C [13]: 87% | viability, T/C [14]: 85% | viability, T/C [15]: 87.5% | viability, T/C [16]: 88.6% | viability, T/C [17]: 63% | viability, T/C [18]: 19.5% | viability, T/C [19]: 25.1% | viability, T/C [20]: 20.8% | viability, T/C [21]: 20.6% | viability, T/C [22]: 16.5% | viability, T/C [23]: 9.85% | viability, T/C [24]: 2.81% | viability, T/C [25]: 2.61% | viability, T/C [26]: 2.87% | viability, T/C [27]: 2.98% | viability, T/C [28]: 4.27% | viability, T/C [29]: 2.21% | viability, T/C [30]: 1.42% | viability, T/C [31]: 2.07% | viability, T/C [32]: 1.29% | viability, T/C [33]: 2.77% | viability, T/C [34]: 1.88% | viability, T/C [35]: 3.26% | viability, T/C [36]: 2.37%

O=C(c1ccc(F)c(F)c1Nc1ccc(I)cc1F)N1CC(O)([C@@H]2CCCCN2)C1 + CCN1C(C(=O)NC23CCC(C(=O)O)(CC2)CC3)C(c2cccc(Cl)c2F)C2(C(=O)Nc3cc(Cl)ccc32)C12CCCCC2
IC50 (second compound 0.00949 µM): > 1000 nM | IC50 (second compound 0.03 µM): > 1000 nM | IC50 (second compound 0.0949 µM): 823 nM | IC50 (second compound 0.3 µM): < 3.16 nM | IC50 (second compound 0.949 µM): < 3.16 nM | IC50 (second compound 3 µM): < 3.16 nM | viability, T/C [1]: 115% | viability, T/C [2]: 103% | viability, T/C [3]: 99.9% | viability, T/C [4]: 111% | viability, T/C [5]: 107% | viability, T/C [6]: 119% | viability, T/C [7]: 96.5% | viability, T/C [8]: 99.5% | viability, T/C [9]: 102% | viability, T/C [10]: 116% | viability, T/C [11]: 116% | viability, T/C [12]: 103% | viability, T/C [13]: 83.5% | viability, T/C [14]: 93.1% | viability, T/C [15]: 94.5% | viability, T/C [16]: 95% | viability, T/C [17]: 93.5% | viability, T/C [18]: 41.4% | viability, T/C [19]: 30.4% | viability, T/C [20]: 23.9% | viability, T/C [21]: 24.8% | viability, T/C [22]: 21.6% | viability, T/C [23]: 10.2% | viability, T/C [24]: 0.94% | viability, T/C [25]: 5.46% | viability, T/C [26]: 5.3% | viability, T/C [27]: 3.35% | viability, T/C [28]: 1.43% | viability, T/C [29]: 0.7% | viability, T/C [30]: 0.15% | viability, T/C [31]: 1.44% | viability, T/C [32]: 2.44% | viability, T/C [33]: 1.3% | viability, T/C [34]: 0.81% | viability, T/C [35]: 0.22% | viability, T/C [36]: 0.42%
